Common to all, as to assay type: biochemical
The target of test [1] is yeast α-glucosidase. Kind of test: α-Glucosidase activity assay (pNPG substrate). The note with it: for IC50: mean ± SEM of triplicate experiments, final concentration 20 to 300 μM. Here is the method:
α-Glucosidase enzymatic activity was assayed spectrophotometrically as described previously. Briefly, 60 μL of reaction mixture containing 20 μL of 100 mM phosphate buffer (pH 6.8), 20 μL of 2.5 mM pNPG, and 20 μL of sample (final concentration ranging from 20 to 300 μM, dissolved in 10% DMSO) was added to each well. After incubation at 37 °C for 5 min in the dark, 20 μL of yeast α-glucosidase (0.2 U/mL) in 10 mM phosphate buffer (pH 6.8) was added. The plate was then incubated at 37 °C for 15 min in the dark, after which the reaction was stopped by the addition of 80 μL of 0.2 M sodium carbonate solution. The absorbance was immediately recorded at 405 nm using a microplate spectrophotometer (Molecular Devices). The control consisted of the same reaction mixture but with the sample solution replaced by an equivalent volume of phosphate buffer. […] The inhibition percentage (%) was obtained using the same equation as in the PTP1B enzymatic assay.

Test [2] concerns the target T1, human recombinant PTP1B (Homo sapiens, UniProt P18031).
T1 construct: purchased Biomol International LP (Plymouth Meeting, PA, USA)
T1 sequence (P18031 1-435): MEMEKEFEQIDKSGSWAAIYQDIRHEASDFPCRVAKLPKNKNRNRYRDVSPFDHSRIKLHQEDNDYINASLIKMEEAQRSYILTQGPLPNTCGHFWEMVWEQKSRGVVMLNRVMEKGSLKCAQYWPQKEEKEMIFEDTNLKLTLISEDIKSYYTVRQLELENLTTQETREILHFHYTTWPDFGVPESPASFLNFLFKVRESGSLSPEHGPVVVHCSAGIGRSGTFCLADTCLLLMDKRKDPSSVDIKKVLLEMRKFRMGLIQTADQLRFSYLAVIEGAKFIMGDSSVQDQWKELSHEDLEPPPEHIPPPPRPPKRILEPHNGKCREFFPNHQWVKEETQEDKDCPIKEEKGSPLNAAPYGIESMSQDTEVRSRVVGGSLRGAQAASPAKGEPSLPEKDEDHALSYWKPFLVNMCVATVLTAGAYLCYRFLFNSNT
Kind of test: PTP1B activity assay (pNPP substrate). To be noted: mean ± SEM of triplicate experiments. The protocol:
The abilities of the aerial parts of E. koreanum and their constituents to inhibit human recombinant PTP1B activity were evaluated using pNPP as a substrate. […] After incubation at 37 °C for 20 min in the dark, the reaction was terminated by addition of 10 M NaOH. The amount of p-nitrophenylate produced by enzymatic dephosphorylation of pNPP was determined by measuring the absorbance at 405 nm using a microplate spectrophotometer (Molecular Devices). Non-enzymatic dephosphorylation of pNPP was corrected by measuring the increase in absorbance at 405 nm obtained in the absence of PTP1B. […] The percent inhibition was calculated as {(AC − AS)/AC} × 100, where AC is the absorbance of the control, and AS is the absorbance of the sample. The IC50 is expressed as the mean ± SEM of triplicate experiments.

Test [3] addresses T1, human recombinant PTP1B. Kind of test: Enzyme kinetics analysis of PTP1B (Lineweaver–Burk and Dixon plots). The note with it: for PTP1B Inhibition Type: determined by the Lineweaver–Burk plot. Here is the method:
The inhibition type and inhibition constant (Ki) of the two compounds were determined using Lineweaver–Burk and Dixon plots. Each line of the inhibitors penetrate the same point at the x-intercept, indicating noncompetitive-type inhibition, and the x-axis represent-Kiwhen 1/V = 0. […] The Dixon plot is an established method for determining the enzyme inhibition type and the Ki value for an enzyme-inhibitor complex, where the value of the x-axis indicates Ki.
In order to determine the inhibition mechanism, two complementary kinetics methods were used: Lineweaver–Burk and Dixon plots. The level of enzymatic inhibition at various concentrations of test sample was evaluated by monitoring the effect of different substrate concentrations in Dixon plots (single reciprocal plots). Dixon plots for PTP1B inhibition were obtained in the presence of different concentrations of pNPP. Using Lineweaver–Burk plots (double reciprocal plots), the inhibition modes of the compounds were determined at various concentrations of pNPP with different concentrations of compounds. The enzymatic procedures were the same as for the PTP1B assay methods. The types of inhibition were investigated by interpreting the Dixon plots, in which the value of the x-axis indicates Ki.

By IC50 is commonly meant the point on the concentration scale where inhibition reaches its midpoint. What is called Ki is the dissociation constant of the complex between target and ligand, obtained from inhibition or displacement.

`COc1ccc(-c2oc3c(CC=C(C)C)c(OC4OC(CO)C(O)C(O)C4O)cc(O)c3c(=O)c2OC2OC(C)C(O)C(O)C2OC2OC(CO)C(O)C(O)C2O)cc1` (centres unmarked) [Epimedin A, epimedin A]: the 50% inhibitory concentration (IC50) in test [1] is 444.1 ± 3.8 µM; in test [2], greater than 300 µM.
For `COc1ccc(-c2oc3c(CC=C(C)C)c(O[C@@H]4O[C@H](CO)[C@@H](O)[C@H](O)[C@H]4O)cc(O)c3c(=O)c2O[C@@H]2O[C@@H](C)[C@H](O)[C@@H](O)[C@H]2O[C@@H]2OC[C@@H](O)[C@H](O)[C@H]2O)cc1` [Epimedin B, epimedin B], in that order: 452 ± 5.36 µM and greater than 300 µM.
For the molecule `COc1ccc(-c2oc3c(CC=C(C)C)c(O[C@@H]4O[C@H](CO)[C@@H](O)[C@H](O)[C@H]4O)cc(O)c3c(=O)c2O[C@@H]2O[C@@H](C)[C@H](O)[C@@H](O)[C@H]2O[C@@H]2O[C@@H](C)[C@H](O)[C@@H](O)[C@H]2O)cc1` [Epimedin C, epimedin C], the IC50 is 403.9 ± 1.53 µM in test [1] and greater than 300 µM in test [2].
Turning to `COc1ccc(-c2oc3c(CC=C(C)C)c(O[C@@H]4O[C@H](CO)[C@@H](O)[C@H](O)[C@H]4O)cc(O)c3c(=O)c2O[C@@H]2O[C@@H](C)[C@H](O)[C@@H](O)[C@H]2O)cc1` [Icariin, icariin], the “α-glucosidase inhibition (in words)” value in test [1] (at any of the tested concentrations) is reported as “did not inhibit α-glucosidase activity at any of the tested concentrations”. In test [2], the IC50 was greater than 300 µM.
For `COc1ccc(-c2oc3c(CC=C(C)C)c(O)cc(O)c3c(=O)c2O)cc1` [Icaritin, icaritin], the 50% inhibitory concentration (IC50) worked out at 74.42 ± 0.01 µM in test [1] and 11.6 ± 1.39 µM in test [2]. The inhibition constant (Ki) in test [3] (determined by the Dixon plot) was 11.4 µM. For the same molecule, in test [3], the “PTP1B Inhibition Type” value was “Non-competitive”.
The molecule icariside II gave a half-maximal inhibitory concentration (IC50) in test [1] of 106.6 ± 0.44 µM. Also, the “PTP1B Inhibition Type” value in test [3] was “Non-competitive”.

For the origin of these results see PMC6152727, “Potential of Icariin Metabolites from Epimedium koreanum Nakai as Antidiabetic Therapeutic Agents” (Molecules : A Journal of Synthetic Chemistry and Natural …, 2017).
